Assay results as given in US5525626A (priority 1989, dated 1996).

What was measured:
Assay in all cases: 3H-thymidine assay
Assay type in all cases: cell-based
[1] = test system: CAKI-2 cells; conditions: Homo sapiens, CAKI-2
Protocol: (§1) The cell lines were cultivated as indicated in Example 1.
(§2) The antiproliferative effect of the 1,2-benzopyrone derivatives according to the invention on the tumor cell lines in each case was shown with the help of the ^3 H-thymidine insertion and with reference to growth curves.
In a 24-well-plate, in each case 10^4 cells of the line to be investigated were inoculated per well. Approximately 48 hours later the cells were half-confluent; the medium was then changed and replaced by a medium containing the active substance in question (cf Table 3). […] Subsequently the cultures were washed twice with ice-cold PBS and the high-molecular-weight ^3 H-radioactivity was precipitated with 5% trichloroacetic acid for one hour at 4° C. After the washing of the cells in PBS the ^3 H-radioactivity was solubilized with 0.3M NaOH and measured in the counter. The growth-inhibition was determined by comparing the thymidine insertion of the cells treated with active substance with untreated cells.
(§3) The active substance concentration in each case was so chosen that ^3 H-thymidine insertion was 50% inhibited. The active substance concentrations used under this aspect for the active substances and cell lines in each case are given in table 4 below in μM/ml, […]

[2] = test system: GV-1 prostate carcinoma cells
[3] = test system: A-375 melanoma cells; conditions: Homo sapiens, A-375
[4] = test system: K-562 leukemic cells; conditions: Homo sapiens, K562
Protocol: as §1, §2
(§4) In a 24-well-plate, in each case 10^4 cells of the line to be investigated were inoculated per well. Approximately 48 hours later the cells were half-confluent; the medium was then changed and replaced by a medium containing the active substance in question (cf Table 3). After a further 48 hours 0.25 μCi ^3 H-thymidine (Ammersham) was added to each well and the cells were incubated for a further 24 hours. Subsequently the cultures were washed twice with ice-cold PBS and the high-molecular-weight ^3 H-radioactivity was precipitated with 5% trichloroacetic acid for one hour at 4° C. After the washing of the cells in PBS the ^3 H-radioactivity was solubilized with 0.3M NaOH and measured in the counter. The growth-inhibition was determined by comparing the thymidine insertion of the cells treated with active substance with untreated cells.
as §3

[5] = test system: MCF-7 breast cancer cells; conditions: Homo sapiens, MCF7
Protocol: as §1, §2, §4, §3

[6] = test system: HCV cells
[7] = test system: Tp 483 MG glioblastoma cells
[8] = test system: Daudi leukemic cells; conditions: Homo sapiens
[9] = test system: Tp 242 MG glioblastoma cells; conditions: Homo sapiens
[10] = 1 μM/ml, read-out: 3H-thymidine tracer (%) of control
[11] = 2 μM/ml, read-out: 3H-thymidine tracer (%) of control
[12] = 4 μM/ml, read-out: 3H-thymidine tracer (%) of control
[13] = 8 μM/ml, read-out: 3H-thymidine tracer (%) of control
[14] = 16 μM/ml, read-out: 3H-thymidine tracer (%) of control
[15] = 25 μM/ml, read-out: 3H-thymidine tracer (%) of control
[16] = 50 μM/ml, read-out: 3H-thymidine tracer (%) of control
[17] = 100 μM/ml, read-out: 3H-thymidine tracer (%) of control
[18] = 500 μM/ml, read-out: 3H-thymidine tracer (%) of control
[19] = Table 4, *: maximum usable dosage, no 50% inhibition, read-out: active substance concentration at which 3H-thymidine insertion was 50% inhibited
[20] = 250 μM/ml, read-out: 3H-thymidine tracer (%) of control
[21] = Table 4, read-out: active substance concentration at which 3H-thymidine insertion was 50% inhibited
[22] = 1 μM/ml, read-out: 3H-thymidine insertion (%) of control
[23] = 2 μM/ml, read-out: 3H-thymidine insertion (%) of control
[24] = 4 μM/ml, read-out: 3H-thymidine insertion (%) of control
[25] = 8 μM/ml, read-out: 3H-thymidine insertion (%) of control
[26] = 16 μM/ml, read-out: 3H-thymidine insertion (%) of control
[27] = 25 μM/ml, read-out: 3H-thymidine insertion (%) of control
[28] = 50 μM/ml, read-out: 3H-thymidine insertion (%) of control
[29] = 100 μM/ml, read-out: 3H-thymidine insertion (%) of control
[30] = 250 μM/ml, read-out: 3H-thymidine insertion (%) of control
[31] = 500 μM/ml, read-out: 3H-thymidine insertion (%) of control

Question: `COc1cc2ccc(=O)oc2cc1O` [Scopoletin, 6-methoxy-7-hydroxy-1,2-benzopyrone] was tested. Which activity at 1 µM [1, 10] did it give?
Answer: 99%

Question: What about the activity at 2 µM [1, 11] of the same compound?
Answer: 96%

Question: And the activity at 4 µM [1, 12]?
Answer: 84%

Question: And the activity at 8 µM [1, 13]?
Answer: 80%

Question: And the activity at 16 µM [1, 14]?
Answer: 76%

Question: What about the activity at 25 µM [1, 15] of the same compound?
Answer: 71%

Question: And the activity at 50 µM [1, 16]?
Answer: 66%

Question: What about the activity at 100 µM [1, 17] of the same compound?
Answer: 61%

Question: What about the activity at 150 µM ([1]; 150 μM/ml, read-out: 3H-thymidine tracer (%) of control) of the same compound?
Answer: 59%

Question: And the activity at 500 µM [1, 18]?
Answer: 53%

Question: And the IC50 [1, 19]?
Answer: > 500 µM

Question: What about the activity at 1 µM [2, 10] of the same compound?
Answer: 100%

Question: And the activity at 2 µM [2, 11]?
Answer: 98%

Question: What about the activity at 4 µM [2, 12] of the same compound?
Answer: 91%

Question: What about the activity at 8 µM [2, 13] of the same compound?
Answer: 88%

Question: What about the activity at 16 µM [2, 14] of the same compound?
Answer: 82%

Question: What about the activity at 25 µM [2, 15] of the same compound?
Answer: 78%

Question: And the activity at 50 µM [2, 16]?
Answer: 71%

Question: What about the activity at 100 µM [2, 17] of the same compound?
Answer: 63%

Question: And the activity at 250 µM [2, 20]?
Answer: 61%

Question: What about the activity at 500 µM [2, 18] of the same compound?
Answer: 51%

Question: What about the IC50 [2, 21] of the same compound?
Answer: 500 µM

Question: What about the activity at 1 µM [3, 10] of the same compound?
Answer: 99%

Question: What about the activity at 2 µM [3, 11] of the same compound?
Answer: 96%

Question: What about the activity at 4 µM [3, 12] of the same compound?
Answer: 90%

Question: And the activity at 8 µM [3, 13]?
Answer: 89%

Question: And the activity at 25 µM [3, 15]?
Answer: 87%

Question: And the activity at 50 µM [3, 16]?
Answer: 78%

Question: What about the activity at 100 µM [3, 17] of the same compound?
Answer: 75%

Question: And the activity at 250 µM [3, 20]?
Answer: 75%

Question: What about the activity at 500 µM [3, 18] of the same compound?
Answer: 70%

Question: And the IC50 [3, 19]?
Answer: > 500 µM

Question: What about the activity at 1 µM [4, 10] of the same compound?
Answer: 100%

Question: And the activity at 2 µM [4, 11]?
Answer: 97%

Question: What about the activity at 4 µM [4, 12] of the same compound?
Answer: 90%

Question: What about the activity at 8 µM [4, 13] of the same compound?
Answer: 85%

Question: And the activity at 16 µM [4, 14]?
Answer: 82%

Question: And the activity at 25 µM [4, 15]?
Answer: 71%

Question: What about the activity at 50 µM [4, 16] of the same compound?
Answer: 66%

Question: What about the activity at 100 µM [4, 17] of the same compound?
Answer: 52%

Question: What about the activity at 250 µM [4, 20] of the same compound?
Answer: 47%

Question: And the activity at 500 µM [4, 18]?
Answer: 44%

Question: What about the IC50 [4, 21] of the same compound?
Answer: 175 µM

Question: What about the activity at 1 µM [5, 10] of the same compound?
Answer: 100%

Question: What about the activity at 2 µM [5, 11] of the same compound?
Answer: 97%

Question: What about the activity at 4 µM [5, 12] of the same compound?
Answer: 94%

Question: And the activity at 8 µM [5, 13]?
Answer: 86%

Question: And the activity at 16 µM [5, 14]?
Answer: 81%

Question: And the activity at 25 µM [5, 15]?
Answer: 76%

Question: And the activity at 50 µM [5, 16]?
Answer: 73%

Question: What about the activity at 100 µM [5, 17] of the same compound?
Answer: 69%

Question: And the activity at 250 µM [5, 20]?
Answer: 62%

Question: What about the activity at 500 µM [5, 18] of the same compound?
Answer: 54%

Question: And the IC50 [5, 19]?
Answer: > 500 µM

Question: What about the activity at 1 µM [6, 10] of the same compound?
Answer: 97%

Question: What about the activity at 2 µM [6, 11] of the same compound?
Answer: 90%

Question: And the activity at 4 µM [6, 12]?
Answer: 86%

Question: What about the activity at 8 µM [6, 13] of the same compound?
Answer: 81%

Question: And the activity at 16 µM [6, 14]?
Answer: 77%

Question: What about the activity at 25 µM [6, 15] of the same compound?
Answer: 69%

Question: And the activity at 50 µM [6, 16]?
Answer: 65%

Question: What about the activity at 250 µM [6, 20] of the same compound?
Answer: 60%

Question: What about the activity at 500 µM [6, 18] of the same compound?
Answer: 57%

Question: And the IC50 [6, 19]?
Answer: > 500 µM

Question: What about the activity at 1 µM [7, 22] of the same compound?
Answer: 100%

Question: What about the activity at 2 µM [7, 23] of the same compound?
Answer: 95%

Question: What about the activity at 4 µM [7, 24] of the same compound?
Answer: 89%

Question: And the activity at 8 µM [7, 25]?
Answer: 86%

Question: And the activity at 16 µM [7, 26]?
Answer: 78%

Question: And the activity at 25 µM [7, 27]?
Answer: 72%

Question: What about the activity at 50 µM [7, 28] of the same compound?
Answer: 67%

Question: And the activity at 100 µM [7, 29]?
Answer: 63%

Question: What about the activity at 250 µM [7, 30] of the same compound?
Answer: 54%

Question: What about the activity at 500 µM [7, 31] of the same compound?
Answer: 50%

Question: And the IC50 [7, 21]?
Answer: 500 µM

Question: What about the activity at 1 µM [8, 10] of the same compound?
Answer: 96%

Question: What about the activity at 2 µM [8, 11] of the same compound?
Answer: 94%

Question: And the activity at 4 µM [8, 12]?
Answer: 80%

Question: And the activity at 8 µM [8, 13]?
Answer: 79%

Question: What about the activity at 16 µM [8, 14] of the same compound?
Answer: 71%

Question: And the activity at 25 µM [8, 15]?
Answer: 64%

Question: And the activity at 50 µM [8, 16]?
Answer: 58%

Question: What about the activity at 100 µM [8, 17] of the same compound?
Answer: 53%

Question: What about the activity at 250 µM [8, 20] of the same compound?
Answer: 49%

Question: What about the activity at 500 µM [8, 18] of the same compound?
Answer: 41%

Question: And the IC50 [8, 21]?
Answer: 250 µM

Question: And the activity at 1 µM [9, 22]?
Answer: 99%

Question: And the activity at 2 µM [9, 23]?
Answer: 93%

Question: And the activity at 4 µM [9, 24]?
Answer: 85%

Question: And the activity at 8 µM [9, 25]?
Answer: 87%

Question: And the activity at 16 µM [9, 26]?
Answer: 84%

Question: And the activity at 25 µM [9, 27]?
Answer: 79%

Question: And the activity at 50 µM [9, 28]?
Answer: 74%

Question: And the activity at 100 µM [9, 29]?
Answer: 61%

Question: And the activity at 250 µM [9, 30]?
Answer: 52%

Question: What about the activity at 500 µM [9, 31] of the same compound?
Answer: 48%

Question: And the IC50 [9, 21]?
Answer: 500 µM
